Assay results taken from patent US20040249124A1 (priority 2001, published 2004).

Test system: antibody MBS-3 binding to p17
Assay: Competitive ELISA: displacement of MBS-3 binding to p17 absorbed in solid phase

NH2-Ser-Gly-Gly-Glu-Leu-Asp-Arg-Trp-Glu-Lys-Ile-Arg-Leu-Arg-COOH (H-SGGELDRWEKIRLR-OH) [SEQ ID NO: 2]
displacing the binding of the antibody MBS-3 to p17: efficacious in displacing
